According to patent US11318113B2, “Compounds for the treatment of diseases linked to mitochondrial reactive oxygen species (ROS) production” (OP2 DRUGS, priority 2015, dated 2022):

Test system: Sod2-KO mice
Experiment: Sod2-KO mice: lifespan, heart SDH activity, liver Oil Red O staining
Format: in vivo, mouse
From the text: Mice deficient in mitochondrial Mn-Superoxide Dismutase (Sod2-KO) on a CD1-background were used. This genetic alteration leads to an adverse phenotype and the death of animals at an average of 8 days old. Mitochondrial superoxide dismutase is a free radical scavenging enzyme which transforms superoxide (highly reactive) into hydrogen peroxide (less reactive), that could then cross mitochondrial membranes and be detoxified by matrix and cytosolic anti-oxidant systems. The aim of this study was to test if AOL could rescue the Sod2-KO phenotype through its activity on IQ superoxide production.
After birth, pups were genotyped (3 day-old) and the litter size was reduced to 6 pups per cage. Animals were then treated (AOL in Kolliphor®—5 mg/kg) or not (Kolliphor® only, noted KOL below). […] Two studies were conducted on two different generations from the same parents: lifespan; and succinate dehydrogenase activity in heart (SDH) and Oil Red O staining in liver. Animals were weighed and injected (intraperitoneal) daily.
Succinate dehydrogenase activity is a marker of superoxide in the mitochondrial matrix. Thus, a lack of SOD2 is associated with a decrease of SDH activity in heart. The aim of this experiment was to test whether or not AOL could restore SDH activity in KO mice.
However, the direct link between superoxide/hydrogen peroxide production and liver lipid accumulation is not established. The aim of the study was to test the potency of AOL to prevent liver lipid accumulation in Sod2-KO mice.
Animals were injected once a day from 3 days old until their death.
In this study, animals were treated daily (5 mg/kg) from day 3 to day 5. Heart and liver were harvested at day 6.

Which “liver lipid droplets density (Oil Red O)” value (5 mg/kg daily day 3 to day 5) does the source give for `COc1ccc(-c2cc(=S)ss2)cc1` [AOL, 5-(4-methoxyphenyl)-3H-1,2-dithiole-3-thione] here?
The value was “decreased”.

What about the “liver total lipid area (Oil Red O)” value (5 mg/kg daily day 3 to day 5) of the same compound?
The value was “able to restore”.

What about the “SDH activity in heart” value (5 mg/kg daily day 3 to day 5, not restored to WT levels) of the same compound?
The value was “very slight increase”.

And the “lifespan extension as compared to untreated mice” value (5 mg/kg ip daily)?
The value was “up to 2 days”.

And the “median lifespan and maximal lifespan” value (5 mg/kg ip daily)?
Its value is “slightly improved”.

And the “lower body weight and body weight gain of KO mice” value (5 mg/kg ip daily, day 8 to 12)?
Its value is “tends to alleviate”.
